We go through seven molecules from PMC10809502, “Application of a new MDCKII-MDR1 cell model to measure the extent of drug distribution in vitro at equilibrium for prediction of in vivo unbound brain-to-plasma drug distribution” (Fluids and Barriers of the CNS, 2024).

The conditions of data set [1]: cited from earlier work; for Kp,uu,brain in vivo: Göttingen minipig.
The nature of data set [2]: Fraction unbound in 20-fold diluted brain homogenate, equilibrium dialysis. Conditions: for fraction unbound at 5 h, 1 μM: Göttingen, minipig, pH 7.4; for Predicted fu (%) Brain (D = 20): calculated with Eq. 2 from fu measured in 100% matrices (ref 20), dilution factor 20.
For data set [3], the system named is P-gp (human MDR1). Description: in vitro. Conditions: dog.
In data set [4] the test system is P-gp (human MDR1). The experiment in a line: Equilibrium distribution study (in vitro Kp,brain / Kp,uu,brain) across MDCKII-MDR1 cells, BSA apical, brain homogenate basolateral, Uni-L and Bi-L. Particulars: dog; for Kp at 29 h, 1 μM: brain homogenate/BSA ratio.
Data set [5] concerns the target T1, Bovine Serum Albumin (BSA) (Bos taurus, UniProt P02769). The experiment in a line: Fraction unbound in 35 μM BSA, equilibrium dialysis. Conditions: for fraction unbound at 5 h, 1 μM: bovine; for Predicted fu (%) BSA 35 μM (D = 20): calculated with Eq. 2 from fu measured in 100% matrices (ref 20), dilution factor 20.
The target in data set [6] is T1, Bovine Serum Albumin (BSA). The experiment in a line: Fraction unbound in 700 μM BSA in phosphate buffer. The format is in vitro ADME. On the set-up: BSA (purity > 98%) was obtained from Beijing SeaskyBio Technology Co. Ltd; purchased Beijing SeaskyBio Technology Co. Ltd. BSAS (Lot 541). Particulars: read-out: fu, 700 μM BSA.
Another data set concerns MDCKII-MDR1 cell line. On the set-up: method as in PMID 34756975, PMID 15236458. Particulars: cited from earlier work.
[7] abbreviates: MDCK-MDR1, pH 7.5, in vitro determined Kp,brain Bi-L, Bi-L (compound loaded both sides), 29 h.
[8] abbreviates: MDCK-MDR1, pH 7.5, in vitro determined Kp,brain Uni-L, Uni-L (compound loaded apically in BSA), 29 h.
The mark [9] stands for this setting: pH 7.5, Recovery Bi-L, mass balance Eq. 7, Bi-L, 29 h, % printed.
Setting [10] is: pH 7.5, Recovery Uni-L, mass balance Eq. 6, Uni-L, 29 h, % printed.
Where [11] appears, read: 20-fold diluted brain homogenate.
Where [12] appears, read: MDCK-MDR1, pH 7.4, with an inhibitor present (name and concentration not stated).
The mark [13] stands for this setting: pH 7.5, assay recovery, equilibrium distribution experiment, setup (Uni-L/Bi-L) not given.

T1 sequence (P02769 25-607): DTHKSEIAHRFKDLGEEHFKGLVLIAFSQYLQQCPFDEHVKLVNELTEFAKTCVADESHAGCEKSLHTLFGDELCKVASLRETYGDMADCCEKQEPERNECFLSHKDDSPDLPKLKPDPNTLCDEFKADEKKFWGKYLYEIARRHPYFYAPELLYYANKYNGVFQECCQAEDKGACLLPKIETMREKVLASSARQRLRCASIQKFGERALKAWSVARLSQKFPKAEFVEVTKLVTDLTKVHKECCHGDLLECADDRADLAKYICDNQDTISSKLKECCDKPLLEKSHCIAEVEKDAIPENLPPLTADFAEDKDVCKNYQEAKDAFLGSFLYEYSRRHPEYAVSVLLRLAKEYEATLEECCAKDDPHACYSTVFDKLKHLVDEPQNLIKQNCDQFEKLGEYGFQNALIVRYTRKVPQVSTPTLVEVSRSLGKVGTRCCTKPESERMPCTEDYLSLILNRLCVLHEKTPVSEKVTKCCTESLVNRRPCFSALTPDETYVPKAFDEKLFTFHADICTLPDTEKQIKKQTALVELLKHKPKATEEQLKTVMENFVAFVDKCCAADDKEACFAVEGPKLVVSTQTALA

In general, Papp B→A refers to how fast a substance crosses the layer from the basolateral side. As a reminder, the efflux ratio is a quotient of directional permeabilities that is used to spot active efflux. Consider `NCC1(CC(=O)O)CCCCC1` [Gabapentin, gabapentin], for which the “Kp,uu,brain in vivo” value in data set [1] is 0.13. For the same molecule, the fraction unbound at 5 h, 1 μM was 0.946 ± 0.015 in data set [2] (brain homogenate) and 0.984 ± 0.062 in data set [5] (isolated protein). For the same molecule, the “Predicted fu (%) Brain (D = 20)” value in data set [2] is reported as 93.4%. For the same molecule, in the data set with P-gp (human MDR1) [3] (MDCK-MDR1, pH 7.4), the Papp B→A at 60 min, 0.5 μM worked out at 1.6 ± 0.2 ×10⁻⁶ cm/s. In addition, the efflux ratio at 60 min, 0.5 μM with P-gp (human MDR1) [3] (MDCK-MDR1, pH 7.4) is 0.5. The Kp at 29 h, 1 μM was 0.9 in the data set with P-gp (human MDR1) [4] (setting [7]) and 0.11 in the data set with P-gp (human MDR1) [4] (setting [8]). Moreover, the values for the recovery at 29 h, 1 μM in the data set on P-gp (human MDR1) [4] (setting [9]) and with P-gp (human MDR1) [4] (setting [10]) were 86% and 85%, respectively. The “Predicted fu (%) BSA 35 μM (D = 20)” value in data set [5] was 99.8%.

Consider `COc1ccc2c(c1)c(CC(=O)O)c(C)n2C(=O)c1ccc(Cl)cc1` [Indomethacin, indomethacin], for which the “Kp,uu,brain in vivo” value in data set [1] is 0.13. Moreover, the fraction unbound at 5 h, 1 μM in data set [2] (setting [11]) is 0.358 ± 0.08. Moreover, in data set [2], the “Predicted fu (%) Brain (D = 20)” value is listed as 42.8%. The molecule also came in with a Papp B→A at 60 min, 0.5 μM in the data set on P-gp (human MDR1) [3] (MDCK-MDR1, pH 7.4) of 2.7 ± 0.3 ×10⁻⁶ cm/s. Moreover, the Kp uu at 29 h, 1 μM with P-gp (human MDR1) [4] (MDCK-MDR1, pH 7.5) was ≥ 1. In addition, the Kp at 29 h, 1 μM with P-gp (human MDR1) [4] (setting [7]) is 0.78; in the data set with P-gp (human MDR1) [4] (setting [8]) it was 0.88. The recovery at 29 h, 1 μM in the data set with P-gp (human MDR1) [4] (setting [9]) was determined as 69%; in the data set with P-gp (human MDR1) [4] (setting [10]), 73%.

As for `CCN(CC)CCNC(=O)c1cc(Cl)c(N)cc1OC` [Metoclopramide, metoclopramide], the results for the fraction unbound at 5 h, 1 μM in data set [6], in data set [2] (setting [11]) and in data set [5] (35 μM BSA) were 0.904, 0.878 ± 0.038 and > 1, respectively. Further, the “Predicted fu (%) Brain (D = 20)” value in data set [2] is 90.7%. In the data set with P-gp (human MDR1) [3] (MDCK-MDR1, pH 7.4), the Papp B→A at 60 min, 0.5 μM was 49 ± 3 ×10⁻⁶ cm/s. Besides, the efflux ratio at 60 min, 0.5 μM in the data set with P-gp (human MDR1) [3] (MDCK-MDR1, pH 7.4) amounted to 2. Also, the Kp at 29 h, 1 μM in the data set with P-gp (human MDR1) [4] (setting [7]) was 0.96; with P-gp (human MDR1) [4] (setting [8]), 1. Besides, the recovery at 29 h, 1 μM in the data set on P-gp (human MDR1) [4] (setting [9]) and with P-gp (human MDR1) [4] (setting [10]) was 66% throughout. Also, the “Predicted fu (%) BSA 35 μM (D = 20)” value in data set [5] is reported as 98.8%.

The term Papp A→B denotes how fast a substance crosses the layer from the apical side. A high value points to fast passage. On to `Clc1ccc2c(c1)N=C(N1CCNCC1)c1ccccc1N2` [N-desmethylclozapine], for which the “classification of brain penetration in vivo” value in data set [1] (Göttingen minipig Kp,uu,brain) is on record as “unrestricted (unrestricted brain penetration with Kp,uu,brain > 0.7)”. In addition, in data set [1], the “Kp,uu,brain in vivo” value is given as 0.71. Besides, the values for the fraction unbound at 5 h, 1 μM in data set [2] (setting [11]) and in data set [5] (35 μM BSA) were 0.131 ± 0.006 and 0.892 ± 0.029, respectively. In addition, the “Predicted fu (%) Brain (D = 20)” value in data set [2] is on record as 13.9%. The Papp B→A at 60 min, 0.5 μM in the data set on P-gp (human MDR1) [3] (MDCK-MDR1, pH 7.4) came out at 4.4 ± 0.3 ×10⁻⁶ cm/s; in the data set on P-gp (human MDR1) [3] (setting [12]), 2.9 ×10⁻⁶ cm/s. Further, the efflux ratio at 60 min, 0.5 μM with P-gp (human MDR1) [3] (MDCK-MDR1, pH 7.4) is 2.1. This molecule also had a Papp A→B at 60 min, 0.5 μM with P-gp (human MDR1) [3] (setting [12]) of 3.6 ×10⁻⁶ cm/s. Moreover, the Kp at 29 h, 1 μM with P-gp (human MDR1) [4] (setting [7]) and in the data set with P-gp (human MDR1) [4] (setting [8]) was 4.2 in each case. Moreover, the recovery at 29 h, 1 μM is 53% in the data set with P-gp (human MDR1) [4] (setting [9]), 62% with P-gp (human MDR1) [4] (setting [10]) and ~50% with P-gp (human MDR1) [4] (setting [13]). In addition, the “Predicted fu (%) BSA 35 μM (D = 20)” value in data set [5] is 82.1%.

In the case of `CC(C)NCC(O)COc1cccc2ccccc12` (centres unmarked) [Propranolol, propranolol], the “Kp,uu,brain in vivo” value in data set [1] was 0.76. Besides, the fraction unbound at 5 h, 1 μM stood at 0.35 ± 0.012 in data set [2] (setting [11]) and 0.897 ± 0.018 in data set [5] (35 μM BSA). In data set [2], the “Predicted fu (%) Brain (D = 20)” value was 37.4%. The molecule further returned a Papp B→A at 60 min, 0.5 μM with P-gp (human MDR1) [3] (MDCK-MDR1, pH 7.4) of 3.7 ± 0.1 ×10⁻⁶ cm/s. Besides, in the data set on P-gp (human MDR1) [3] (MDCK-MDR1, pH 7.4), the efflux ratio at 60 min, 0.5 μM is 0.8. The Kp at 29 h, 1 μM stood at 1.9 in the data set on P-gp (human MDR1) [4] (setting [7]) and 2.2 in the data set with P-gp (human MDR1) [4] (setting [8]). For the same molecule, the recovery at 29 h, 1 μM in the data set with P-gp (human MDR1) [4] (setting [9]) was 21%; in the data set on P-gp (human MDR1) [4] (setting [10]), 25%; with P-gp (human MDR1) [4] (setting [13]), ~20%. Also, in data set [5], the “Predicted fu (%) BSA 35 μM (D = 20)” value is on record as 86.8%.

`COc1ccccc1N1CCN(CCN(C(=O)C2CCCCC2)c2ccccn2)CC1` [Way-100635]: in data set [1], the “Kp,uu,brain in vivo” value is 0.40. Further, the “Determined fu (%) Brain (D = 20)” value in data set [2] (20-fold diluted brain homogenate, 1 μM, 5 h, 37 ℃, Eq. 1, mean ± SD N=3) is 74.8 ± 8.0%. Further, the “Predicted fu (%) Brain (D = 20)” value in data set [2] was 71.8%. For the same molecule, in the data set on MDCKII-MDR1 cells, the “Kp,uu,brain in Vitro Uni-L (Det. fu)” value is given as 1.09; the “Kp,uu,brain in Vitro Uni-L (Pre.fu)” value came out at 0.96; the “assay recovery, equilibrium distribution experiment” value is given as “around 50%”. Moreover, in the data set on MDCKII-MDR1 cells (dog, MDCK-MDR1), the “in vitro Kp,uu,brain” value is ~ 1. Also, the “Determined fu (%) BSA 35 μM (D = 20)” value in data set [5] (35 μM BSA, 1 μM, 5 h, 37 ℃, Eq. 1, mean ± SD N=3) was 80.2 ± 0.9%. The “Predicted fu (%) BSA 35 μM (D = 20)” value in data set [5] was 87.1%.

In the case of `OC[C@@H](O)[C@@H](O)[C@H](O)[C@H](O)CO` [mannitol], in the data set on MDCKII-MDR1 cell line, the mannitol flux is listed as 1–7 10^–7 cm/s.
